Experiments:
Type in all cases: cell-based
human TRPM5 ion channel = molecular target: T1, human TRPM5 ion channel (Homo sapiens, UniProt Q9NZQ8); experiment: TRPM5 FLIPR membrane potential screening assay (ATP stimulation); settings: 10 μM compound; HEK293 cells stably expressing human TRPM5; 3 μM ATP stimulation; versus negative control wells; read-out: TRPM5 Activity (percent inhibition)
T1 construct: expressed in transfected cells
T1 sequence (Q9NZQ8 1-1165): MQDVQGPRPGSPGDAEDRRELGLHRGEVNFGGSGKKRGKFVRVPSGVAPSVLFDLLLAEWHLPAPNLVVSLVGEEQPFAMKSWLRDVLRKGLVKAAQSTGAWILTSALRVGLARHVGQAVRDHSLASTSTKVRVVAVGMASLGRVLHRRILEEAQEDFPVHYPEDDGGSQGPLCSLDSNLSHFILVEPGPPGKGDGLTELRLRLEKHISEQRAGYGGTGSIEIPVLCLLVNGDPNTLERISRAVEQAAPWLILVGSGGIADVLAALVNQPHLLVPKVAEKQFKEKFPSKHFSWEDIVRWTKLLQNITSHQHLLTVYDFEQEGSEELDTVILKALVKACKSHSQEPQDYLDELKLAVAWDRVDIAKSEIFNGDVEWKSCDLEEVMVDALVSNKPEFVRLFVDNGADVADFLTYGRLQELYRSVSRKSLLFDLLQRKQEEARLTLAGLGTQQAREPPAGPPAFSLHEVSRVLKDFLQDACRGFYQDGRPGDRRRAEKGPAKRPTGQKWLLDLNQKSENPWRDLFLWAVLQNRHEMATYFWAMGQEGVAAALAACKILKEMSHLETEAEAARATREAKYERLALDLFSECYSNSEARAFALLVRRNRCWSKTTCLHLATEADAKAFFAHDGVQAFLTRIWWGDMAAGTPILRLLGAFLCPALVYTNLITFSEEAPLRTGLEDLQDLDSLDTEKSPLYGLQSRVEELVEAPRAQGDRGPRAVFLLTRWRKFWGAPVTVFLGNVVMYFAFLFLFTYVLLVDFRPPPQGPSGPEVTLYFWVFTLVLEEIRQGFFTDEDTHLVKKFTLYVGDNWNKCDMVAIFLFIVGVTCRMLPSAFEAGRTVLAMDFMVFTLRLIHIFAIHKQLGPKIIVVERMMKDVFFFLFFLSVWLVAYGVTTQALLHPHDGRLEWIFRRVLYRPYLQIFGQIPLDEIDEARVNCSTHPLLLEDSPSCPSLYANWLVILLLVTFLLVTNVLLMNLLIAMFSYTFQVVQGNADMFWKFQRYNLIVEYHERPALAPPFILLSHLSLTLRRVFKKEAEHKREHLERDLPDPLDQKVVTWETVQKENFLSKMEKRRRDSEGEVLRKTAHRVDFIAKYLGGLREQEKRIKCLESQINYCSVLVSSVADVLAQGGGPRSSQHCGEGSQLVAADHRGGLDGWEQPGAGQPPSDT
Protocol: The activity of human TRPM5 ion channel was measured in live cells on a fluorescent imaging plate reader (FLIPR). The basis of the assay (shown in FIG. 1) is the calcium-dependent activation of the ion channel which occurs via by activation of a G-protein coupled receptor (GPCR). GPCR activation by an appropriate agonist causes a transient increase in […] Ca^2+ ion concentration which in turn causes the ion channel to open, letting in Na^+ ions. This influx causes a change in the membrane potential of the cell which can be monitored as a change in the fluorescent signal from voltage-dependent (membrane potential) fluorescent dyes.
For the screening assay, the human TRPM5 gene was cloned, put into HEK293 cells, and a stable, high expression clone was used for screening. Cells were grown in standard media at 37° C. The day before screening, the cells were removed from flasks and added to 384 well clear bottom plates (8K cells in 20 μL/well). On the assay day, 20 μL of membrane potential dye (Part No. R8123, Molecular Devices Corp.) was added to the cells and dye was allowed to be taken up, i.e., load, into the cells for 1 hr at 37° C. […] The assay was started by addition of 10 μL of solution from the compound plate into the cell plate. During this process, continuous fluorescent recordings were made simultaneously for all wells. After addition of the compound solution, the tips were automatically washed and a stimulation solution of 3 μM ATP (an agonist for an endogenous purinurgic GPCR, was added to all wells of the cell plate. The height of the response was calculated and percent inhibition values, versus negative control wells, was calculated for the test samples.
(§1) Unless otherwise indicated, the data in the table below were determined using the three assays described above, providing percent inhibition data at 10 μM.

[1] = tested on: membrane potential response (non-specific ion channel block); experiment: KCl counterscreen (membrane potential dye, 10 mM KCl stimulation); settings: Homo sapiens; 10 μM compound; same HEK293 TRPM5 cells; 10 mM KCl instead of ATP; read-out: KC1 Counterscreen (percent inhibition)
Protocol: (§2) Two counterscreen assays were run on separate cell plates utilizing the same cells as described above. In the calcium counterscreen, the cells were loaded with a calcium sensitive dye (Calcium3 Dye, Part no. 8090, Molecular Devices Corp.) and stimulated by ATP to check for compounds that block the GPCR-mediated calcium activation step. In the KCl counterscreen, cells are stimulated with 10 mM KCl instead of ATP to check for compounds that inhibit the membrane potential response by virtue of being non-specific ion channel blockers.
as §1

[2] = tested on: GPCR-mediated calcium activation step; experiment: Calcium counterscreen (calcium sensitive dye, ATP stimulation); settings: Homo sapiens, 10 μM compound, same HEK293 TRPM5 cells, Calcium3 dye, read-out: Calcium Counterscreen (percent inhibition)
Protocol: as §2, §1

human TRPM5 = molecular target: T2, human TRPM5 (Homo sapiens, UniProt Q9NZQ8); experiment: Whole-cell electrophysiology of TRPM5 current; settings: HEK293; HEK cells stably transfected with human TRPM5, pre-treated with 10 μM; current activated by intracellular calcium dialysis (170 nM free calcium); FIG. 2B
T2 construct: expressed in transfected cells; host or cells: HEK cells, stably transfected
T2 sequence (Q9NZQ8 1-1165): T1 sequence (Q9NZQ8 1-1165)
Protocol: Standard whole-cell recordings were obtained from HEK cells stably transfected with human TRPM5. Internal solution contained 135 mM CsGlutamate, 10 mM HEPES, 2 mM MgATP, 5 mM CaCl2 and 10 mM EGTA. External solution was HBSS (Gibco) buffered with 20 mM HEPES to pH 7.2. Currents were recorded with Multiclamp 700B amplifier using PClamp software; filered at 1 kHz, sampled at 5 kHz. Holding potential was −80 mV. TRPM5 current was activated by intracellular calcium dialysis (170 nM free calcium) and sampled with 200 ms ramps from −80 to 80 mV at 1 Hz. Current amplitudes were measured at −80 and 80 mV potted versus time.

- inhibition at 10 µM (human TRPM5 ion channel): 97%
- inhibition at 10 µM (human TRPM5): > 90%
Structure (SMILES): COc1ccc(/C=N/NC(=O)Cc2cccc3ccccc23)cc1OC [Example 3, (E)-N′-(3,4-Dimethoxybenzylidene)-2-(naphthalene-1-yl)acetohydrazide]
- inhibition at 10 µM [1]: 6%
- inhibition at 10 µM [2]: 2%
